Results taken from ChEMBL document CHEMBL1144939, “Modeling the adenosine receptors: comparison of the binding domains of A2A agonists and antagonists” (J Med Chem, 2003).

How the values were obtained:
[1] = molecular target: Adenosine receptors; A1 & A2a (Homo sapiens) (UniProt P30542+P29274); assay: Selectivity ratio for binding to human adenosine A1 and A2A receptors; assay type: protein assay
[2] = molecular target: Adenosine receptor A2a (Homo sapiens, UniProt P29274, T88D); assay: Binding affinity against T88D human adenosine A2A receptor expressed in CHO cells using [3H]- ZM-241385; assay type: cell-based
Sequence of Adenosine receptor A2a (Homo sapiens, UniProt P29274, T88D) (P29274 whole entry T88D): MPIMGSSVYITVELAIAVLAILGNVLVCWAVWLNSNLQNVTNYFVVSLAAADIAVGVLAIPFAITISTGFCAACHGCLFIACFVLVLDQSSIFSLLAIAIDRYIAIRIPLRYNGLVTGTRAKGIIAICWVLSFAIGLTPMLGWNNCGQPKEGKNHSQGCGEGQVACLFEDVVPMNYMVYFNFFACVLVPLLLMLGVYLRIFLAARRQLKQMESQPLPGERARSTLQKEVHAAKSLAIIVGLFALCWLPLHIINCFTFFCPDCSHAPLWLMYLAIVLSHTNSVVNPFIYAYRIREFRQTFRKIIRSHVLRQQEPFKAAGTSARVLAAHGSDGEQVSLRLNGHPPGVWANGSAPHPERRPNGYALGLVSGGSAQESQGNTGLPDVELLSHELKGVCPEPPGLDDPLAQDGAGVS

[3] = molecular target: Adenosine receptor A2a (Homo sapiens, UniProt P29274, T88E); assay: Binding affinity against T88E human adenosine A2A receptor expressed in CHO cells using [3H]- ZM-241385; assay type: cell-based
Sequence of Adenosine receptor A2a (Homo sapiens, UniProt P29274, T88E) (P29274 whole entry T88E): as the sequence (P29274 whole entry T88D) above, with D88E counted along it

[4] = molecular target: Adenosine receptor A2a (Homo sapiens, UniProt P29274, H278D); assay: biochemical
Sequence of Adenosine receptor A2a (Homo sapiens, UniProt P29274, H278D) (P29274 whole entry H278D): as the sequence (P29274 whole entry T88D) above, with D88T, H278D counted along it

[5] = molecular target: Adenosine receptor A2a (Homo sapiens, UniProt P29274, H278E); assay: biochemical
Sequence of Adenosine receptor A2a (Homo sapiens, UniProt P29274, H278E) (P29274 whole entry H278E): as the sequence (P29274 whole entry T88D) above, with D88T, H278E counted along it

[6] = molecular target: Adenosine receptor A2a (Homo sapiens, UniProt P29274, Q89D); assay: biochemical
Sequence of Adenosine receptor A2a (Homo sapiens, UniProt P29274, Q89D) (P29274 whole entry Q89D): as the sequence (P29274 whole entry T88D) above, with D88T, Q89D counted along it

[7] = molecular target: Adenosine receptor A2a (Homo sapiens, UniProt P29274, S277E); assay: biochemical
Sequence of Adenosine receptor A2a (Homo sapiens, UniProt P29274, S277E) (P29274 whole entry S277E): as the sequence (P29274 whole entry T88D) above, with D88T, S277E counted along it

[8] = molecular target: Adenosine receptor A2a (Homo sapiens, UniProt P29274); assay: biochemical
Sequence of Adenosine receptor A2a (Homo sapiens, UniProt P29274) (P29274 whole entry): as the sequence (P29274 whole entry T88D) above, with D88T counted along it
Description: Binding affinity against WT human adenosine A2A receptor expressed in CHO cells using [3H]- ZM-241385

SMILES	Ratio [1]	Ki [2] [µM]	Ki [3] [µM]	Ki [4] [µM]	Ki [5] [µM]	Ki [6] [µM]	Ki [7] [µM]	Ki [8] [µM]
Nc1ccc(CCCn2ncc3c2nc(N)n2nc(-c4ccco4)nc32)cc1	9820							
N[C@H]1[C@@H](O)[C@H](n2cnc3c(NCc4cccc(I)c4)ncnc32)O[C@@H]1CO		18	57	87	64	6.4	88	0.067
NC[C@H]1O[C@@H](n2cnc3c(N)ncnc32)[C@H](O)[C@@H]1O		407	492			52	604	0.534
NC[C@H]1[C@@H](O)[C@H](n2cnc3c(NCc4cccc(I)c4)ncnc32)O[C@@H]1CO		6.5	64	59	56	58	67	0.079
